What all share (assay type): cell-based
The subject of one test is C. albicans NCPF 3179. The test is described as follows: Microstatic activity, MIC in tryptone soy broth. As to conditions: Candida albicans, NCPF3179, 120 h, 25° C., 5 days. As for the experimental part: (§1) For this, in each case a 40 percent strength by weight solution of a diol in propylene glycol was prepared at 60° C. This solution was diluted with a double-strength soy solution (double-strength tryptone soy broth) as nutrient medium in the volume ratio 1:1. Further dilution with soy solution produced solutions with the following concentrations: 400 000 ppm (40%), 200 000 ppm (20%), 100 000 ppm (10%), 50 000 ppm (5%), 25 000 ppm (2.5%), 12 500 ppm (1.25%), 6250 ppm (0.625%), 3125 ppm (0.3125%). Pure soy solution was used as negative control. The positive control used was a solution of 5 ml of soy solution which has been treated with 0.1 ml of the respective microorganism. The test solutions consisted of 5 ml of the above-described soy solutions of the diols in the particular concentration which have been mixed with 0.1 ml of the respective microorganism. The samples and controls were incubated in the case of the bacteria at 30° C. for 48 hours, and in the case of fungi over 5 days at 25° C. In each case, the MIC (Minimum Inhibitory Concentration) value was determined. This value indicates the minimum concentration above which the growth of the microorganisms was visibly hindered compared to the corresponding sample without addition of the diol. […] For example, this was evident from the occurrence of clouding or visible growth of the microorganism. […] The MIC value stated is a range between the next higher concentration of a positive test and the same and/or lower concentration of a first negative test.

Test [1] concerns P. aeruginosa NCIMB 10421. The test is described as follows: Microstatic activity, MIC in tryptone soy broth. As to conditions: Pseudomonas aeruginosa, NCIMB10421, 30° C., 48 hours. As for the experimental part: as §1
The next test has as its system P. vulgaris NCIMB 4175. Description: Microstatic activity, MIC in tryptone soy broth. The following applies: Proteus vulgaris, NCIMB4175, 30° C., 48 hours. As for the experimental part: as §1
Another test concerns S. aureus NCIMB 9578. Description: Microstatic activity, MIC in tryptone soy broth. As to conditions: Staphylococcus aureus, NCIMB9578, 30° C., 48 hours. As for the experimental part:
as §1

A further test concerns E. coli NCIMB 8545. The test is described as follows: Microstatic activity, MIC in tryptone soy broth. As to conditions: 48 hours; for MIC: Escherichia coli, NCIMB8545, 30° C. As for the experimental part:
as §1

Test [2] deals with series of tested microorganisms (bacteria and fungi). Description: Microstatic activity, highest MIC from the series of tested microorganisms. The following applies: highest measured MIC from the series of tested microorganisms. As for the experimental part:
The following microorganisms were used;to test the biocidal effect against various bacteria and fungi: In each case, the MIC (Minimum Inhibitory Concentration) value was determined. This value indicates the minimum concentration above which the growth of the microorganisms was visibly hindered compared to the corresponding sample without addition of the diol. The MIC value stated is a range between the next higher concentration of a positive test and the same and/or lower concentration of a first negative test. In the last line of each of the tables below, a “maximum” value is listed. This value indicates the highest measured MIC value in each case from the series of tested microorganisms.

The subject of the next test is A. niger IMI 149007. The test is described as follows: Microstatic activity, MIC in tryptone soy broth. The following applies: Aspergillus niger, IMI149007, 120 h, 25° C., 5 days. As for the experimental part: as §1
Setting [3] is: lower limit of MIC range, read-out: MIC value (ppm of diol), from.
[4] abbreviates: upper limit of MIC range, read-out: MIC value (ppm of diol), to.
Setting [5] is: lower limit, read-out: Maximum MIC value (ppm of diol), from.
The mark [6] stands for this setting: upper limit, read-out: Maximum MIC value (ppm of diol), to.

Where two headings read alike, the source gives them in different places. Some results are limits rather than exact numbers.

As usually defined, the MIC is the lowest concentration that inhibits growth of the organism. In the case of `CC(O)CC(C)O` (stereo not drawn) [2,4-Pentanediol, 2,4-pentanediol, reference compound], the MIC in the test with C. albicans NCPF 3179 (setting [3]) was above 50 mg/mL; with C. albicans NCPF 3179 (setting [4]) it was at most 100 mg/mL; in test [1] (setting [3]), above 50 mg/mL; in test [1] (setting [4]), at most 100 mg/mL; in the test on P. vulgaris NCIMB 4175 (setting [3]) it was above 50 mg/mL; in the test on P. vulgaris NCIMB 4175 (setting [4]), at most 100 mg/mL. Further, the MIC in the test with S. aureus NCIMB 9578 (setting [3]) is above 50 mg/mL; with S. aureus NCIMB 9578 (setting [4]), at most 100 mg/mL; in the test with E. coli NCIMB 8545 (setting [3]), above 50 mg/mL; in the test with E. coli NCIMB 8545 (setting [4]), at most 100 mg/mL.
On to `CCCCC(CC)(CO)CO` [BEPD, 2-butyl-2-ethylpropane-1,3-diol], for which the MIC in test [2] (setting [5]) is above 50 mg/mL; in test [2] (setting [6]) it was at most 100 mg/mL; in the test with C. albicans NCPF 3179 (setting [3]), above 25 mg/mL; with C. albicans NCPF 3179 (setting [4]), at most 50 mg/mL; in test [1] (setting [3]), above 50 mg/mL; in test [1] (setting [4]), at most 100 mg/mL. Also, the MIC in the test on P. vulgaris NCIMB 4175 (setting [3]) was above 3.12 mg/mL; in the test with P. vulgaris NCIMB 4175 (setting [4]), at most 6.25 mg/mL; in the test on S. aureus NCIMB 9578 (setting [3]), above 12.5 mg/mL; in the test on S. aureus NCIMB 9578 (setting [4]), at most 25 mg/mL; in the test on E. coli NCIMB 8545 (setting [3]) it was above 6.25 mg/mL; with E. coli NCIMB 8545 (setting [4]) it was at most 12.5 mg/mL. The MIC is above 12.5 mg/mL in the test on A. niger IMI 149007 (setting [3]) and at most 25 mg/mL in the test with A. niger IMI 149007 (setting [4]).
`OCC1(CO)CCCCC1` [DMCH, 1,1-dimethylolcyclohexane]: the MIC is above 25 mg/mL in test [2] (setting [5]); at most 50 mg/mL in test [2] (setting [6]); above 25 mg/mL in the test with C. albicans NCPF 3179 (setting [3]); at most 50 mg/mL with C. albicans NCPF 3179 (setting [4]); above 12.5 mg/mL in test [1] (setting [3]); at most 25 mg/mL in test [1] (setting [4]). Further, the minimal inhibitory concentration (MIC) in the test with P. vulgaris NCIMB 4175 (setting [3]) was above 12.5 mg/mL; in the test with P. vulgaris NCIMB 4175 (setting [4]), at most 25 mg/mL; in the test with S. aureus NCIMB 9578 (setting [3]) it was above 12.5 mg/mL; in the test with S. aureus NCIMB 9578 (setting [4]), at most 25 mg/mL; in the test with E. coli NCIMB 8545 (setting [3]) it was above 6.25 mg/mL; with E. coli NCIMB 8545 (setting [4]) it was at most 12.5 mg/mL. In addition, the MIC in the test on A. niger IMI 149007 (setting [3]) was above 25 mg/mL; in the test on A. niger IMI 149007 (setting [4]), at most 50 mg/mL.
For the compound `OCC1(CO)CCCCCCC1` [DMCO, 1,1-dimethylolcyclooctane], the MIC in test [2] (setting [5]) is above 12.5 mg/mL; in test [2] (setting [6]) it was at most 25 mg/mL; in the test with C. albicans NCPF 3179 (setting [3]) it was above 6.25 mg/mL; with C. albicans NCPF 3179 (setting [4]), at most 12.5 mg/mL; in test [1] (setting [3]), above 12.5 mg/mL; in test [1] (setting [4]) it was at most 25 mg/mL. Further, the MIC in the test on P. vulgaris NCIMB 4175 (setting [3]) was above 6.25 mg/mL; in the test on P. vulgaris NCIMB 4175 (setting [4]), at most 12.5 mg/mL; in the test on S. aureus NCIMB 9578 (setting [3]), above 6.25 mg/mL; with S. aureus NCIMB 9578 (setting [4]) it was at most 12.5 mg/mL; in the test on E. coli NCIMB 8545 (setting [3]) it was above 3.12 mg/mL; in the test on E. coli NCIMB 8545 (setting [4]) it was at most 6.25 mg/mL. In addition, the MIC in the test on A. niger IMI 149007 (setting [3]) was above 6.25 mg/mL; with A. niger IMI 149007 (setting [4]), at most 12.5 mg/mL.
Regarding `OCC1(CO)CC/C=C\CCC1` [DMCOE, 1,1-dimethylolcyclooct-4-ene], the MIC in test [2] (setting [5]) was above 12.5 mg/mL; in test [2] (setting [6]), at most 25 mg/mL; in the test on C. albicans NCPF 3179 (setting [3]) it was above 12.5 mg/mL; in the test with C. albicans NCPF 3179 (setting [4]), at most 25 mg/mL; in test [1] (setting [3]), above 12.5 mg/mL; in test [1] (setting [4]), at most 25 mg/mL. The MIC in the test on P. vulgaris NCIMB 4175 (setting [3]) was above 3.12 mg/mL; with P. vulgaris NCIMB 4175 (setting [4]), at most 6.25 mg/mL; with S. aureus NCIMB 9578 (setting [3]) it was above 6.25 mg/mL; with S. aureus NCIMB 9578 (setting [4]), at most 12.5 mg/mL; in the test with E. coli NCIMB 8545 (setting [3]) it was above 3.12 mg/mL; in the test with E. coli NCIMB 8545 (setting [4]) it was at most 6.25 mg/mL. Also, the MIC in the test on A. niger IMI 149007 (setting [3]) was above 12.5 mg/mL; with A. niger IMI 149007 (setting [4]), at most 25 mg/mL.
As to `CCC(C)(CO)CO` [EMPD, 2-ethyl-2-methylpropane-1,3-diol], the MIC is above 50 mg/mL in test [2] (setting [5]); at most 100 mg/mL in test [2] (setting [6]); above 50 mg/mL with C. albicans NCPF 3179 (setting [3]); at most 100 mg/mL with C. albicans NCPF 3179 (setting [4]); above 12.5 mg/mL in test [1] (setting [3]); at most 25 mg/mL in test [1] (setting [4]). The MIC in the test on P. vulgaris NCIMB 4175 (setting [3]) is above 25 mg/mL; in the test on P. vulgaris NCIMB 4175 (setting [4]), at most 50 mg/mL; in the test with S. aureus NCIMB 9578 (setting [3]) it was above 25 mg/mL; in the test with S. aureus NCIMB 9578 (setting [4]), at most 50 mg/mL; in the test with E. coli NCIMB 8545 (setting [3]), above 12.5 mg/mL; in the test on E. coli NCIMB 8545 (setting [4]) it was at most 25 mg/mL. Moreover, the results for the MIC with A. niger IMI 149007 (setting [3]) and with A. niger IMI 149007 (setting [4]) were above 50 mg/mL and at most 100 mg/mL, respectively.
Consider `CC(C)CCC(CO)(CO)C(C)C` [IMBPD, 2-isopropyl-2-(3-methylbutyl)propane-1,3-diol], for which the MIC is above 100 mg/mL in test [2] (setting [5]); above 25 mg/mL in the test with C. albicans NCPF 3179 (setting [3]); at most 50 mg/mL in the test on C. albicans NCPF 3179 (setting [4]); above 100 mg/mL in test [1] (setting [3]); above 50 mg/mL with P. vulgaris NCIMB 4175 (setting [3]); at most 100 mg/mL in the test with P. vulgaris NCIMB 4175 (setting [4]). Also, the MIC in the test with S. aureus NCIMB 9578 (setting [3]) is above 50 mg/mL; in the test on S. aureus NCIMB 9578 (setting [4]) it was at most 100 mg/mL; with E. coli NCIMB 8545 (setting [3]), above 25 mg/mL; with E. coli NCIMB 8545 (setting [4]) it was at most 50 mg/mL; in the test with A. niger IMI 149007 (setting [3]), above 12.5 mg/mL; in the test with A. niger IMI 149007 (setting [4]), at most 25 mg/mL.
Turning to `CC(CO)(CO)c1ccccc1` [MPPD, 2-methyl-2-phenylpropane-1,3-diol], the MIC was above 50 mg/mL in test [2] (setting [5]); at most 100 mg/mL in test [2] (setting [6]); above 50 mg/mL in the test on C. albicans NCPF 3179 (setting [3]); at most 100 mg/mL in the test with C. albicans NCPF 3179 (setting [4]); above 25 mg/mL in test [1] (setting [3]); at most 50 mg/mL in test [1] (setting [4]). For the same compound, the MIC in the test with P. vulgaris NCIMB 4175 (setting [3]) is above 3.12 mg/mL; in the test on P. vulgaris NCIMB 4175 (setting [4]), at most 6.25 mg/mL; with S. aureus NCIMB 9578 (setting [3]) it was above 12.5 mg/mL; in the test with S. aureus NCIMB 9578 (setting [4]), at most 25 mg/mL; in the test on E. coli NCIMB 8545 (setting [4]), at most 3.12 mg/mL; in the test on A. niger IMI 149007 (setting [3]), above 50 mg/mL. In addition, the MIC in the test on A. niger IMI 149007 (setting [4]) was at most 100 mg/mL. Also, the “MIC value (ppm of diol), from” value in the test with E. coli NCIMB 8545 (30° C., lower limit of MIC range) is given as above 0 ppm.
For the compound `CC(O)CO` (stereo not drawn) [Propylene glycol, propylene glycol, reference compound], the minimum inhibitory concentration (MIC) (in test [1] (setting [3]); with P. vulgaris NCIMB 4175 (setting [3])) was above 100 mg/mL throughout.

The values above are taken from patent US20120152149A1, “USE OF 1,3-DIOLS AS BIOCIDES” (BASF SE, priority 2009, published 2012).
